Laboratory results taken from PubChem BioAssay AID608 (Sanford-Burnham Center for Chemical Genomics, 2007).
“And” between values parts separate entries of the source, which are not always exact repeats. Identical values can stand only once. The source made the active and inactive calls. No rule for the calls is given here.

Target: Peptidyl-prolyl cis-trans isomerase FKBP1A (Homo sapiens) (UniProt P62942)
Experiment: small-molecule binding to FKBP12 – biophysical, NMR detection (AID 608)
Conditions: purified FKBP12

Chain of Peptidyl-prolyl cis-trans isomerase FKBP1A (Homo sapiens) (P62942 whole entry, looked up): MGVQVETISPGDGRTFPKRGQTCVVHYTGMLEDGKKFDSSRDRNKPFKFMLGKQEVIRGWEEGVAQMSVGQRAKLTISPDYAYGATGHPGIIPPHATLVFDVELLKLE

| SMILES | Kd |
| --- | --- |
| Cc1ccc(NS(=O)(=O)N2CCCCC2)c(C)c1 | 0.436 mM |
| Cc1nnc(SCc2ccccc2)[nH]c1=O | > 4 mM (inactive) |
| CC1(C)C2CC(=O)[C@]3(C)C(CC[C@@]4(C)[C@H](c5ccoc5)OC(=O)[C@H]5O[C@]543)[C@@]2(C)C=C[C@@H]1O (some centres not stated) | > 4 mM (inactive) |
| c1ccc(CCc2nc(-c3ccncc3)no2)cc1 | > 4 mM (inactive) |
| O=C1CN2C(=N1)N(Cc1ccccc1)c1ccccc12 | > 4 mM (inactive) |
| C=C[C@H]1CN2CC[C@H]1C[C@@H]2[C@H](O)c1ccnc2ccccc12 | > 4 mM (inactive) |
| CC(=O)c1ccc(Cc2cnc(N)s2)cc1 | > 4 mM (inactive) |
| S=C(NC1CC1)NN1CCOCC1 | > 4 mM (inactive) |
| COc1cccc(/C=C2/SC(N)=NC2=O)c1 | > 4 mM (inactive) |
| COC(=O)c1nc(-c2ccccc2)oc1N(C)C | > 4 mM (inactive) |
| COC(=O)C1CCc2ccccc2N1 (configuration not stated) | > 4 mM (inactive) |
| O=C(c1cccc(-n2cnnn2)c1)N1CCOCC1 | > 4 mM (inactive) |
| Cc1ccc(SCC(=O)N2CCOCC2)cc1 | 0.022 mM and 0.012 mM |
| Cc1ccc2nc(SCCC#N)nc(C)c2c1 | > 4 mM (inactive) |
| O=C(O)CCn1cncn1 | > 4 mM (inactive) |
| Cn1c(O)c(C2=NC(=S)NC2=O)c2ccccc21 | > 4 mM (inactive) |
| O=C(NC(=S)NCc1cccnc1)c1ccco1 | > 4 mM (inactive) |
| CC12CC[C@H](CC1=O)C2(C)C | > 4 mM (inactive) |
| NC(=O)C1CCN(c2ccc(Cl)nn2)CC1 | > 4 mM (inactive) |
| CCC(C)C(=O)O[C@@H]1C[C@@]2(C)[C@H](c3ccoc3)OC(=O)CC23OC2(C)O[C@]14[C@]1(C)[C@@H](CC(=O)OC)C5(C)CC1(O)[C@](O)(C5OC(=O)C1(C)OC1C)[C@@H](OC(C)=O)[C@]34O2 (some centres not stated) | > 4 mM (inactive) |
| OCc1ccc2c(c1)OCCO2 | > 4 mM (inactive) |
| Nc1ccc(S(=O)(=O)N2CCOCC2)cc1 | > 4 mM (inactive) |
| Cn1c(=O)n(-c2cccc(Cl)c2)c(=O)n1C | > 4 mM (inactive) |
| N/C(=N/S(=O)(=O)c1cccs1)c1ccccc1 | > 4 mM (inactive) |

| SMILES | Kd |
| --- | --- |
| O=C(NC(=S)NC1CCS(=O)(=O)C1)c1ccccc1 (configuration not stated) | > 4 mM (inactive) |
| CC(C)=CCc1c2c(c(O)c3c(=O)c(O)c(-c4ccccc4)oc13)C=CC(C)(C)O2 | > 4 mM (inactive) |
| Oc1ccccc1N1CCCC1 | > 4 mM (inactive) |
| CCSc1n[nH]c(=O)[nH]c1=O | > 4 mM (inactive) |
| CC(=O)c1cc(C)ccc1O | > 4 mM (inactive) |
| CC(C)(CO)NC(=O)c1ccccc1F | > 4 mM (inactive) |
| Cc1c(C(=O)N2CCOCC2)oc2c1C(=O)CC(C)(C)C2 | > 4 mM (inactive) |
| COCC(=O)Nc1ccc(C)c(Cl)c1 | > 4 mM (inactive) |
| Cc1ccc2nc(NC(=O)CN3CCOCC3)sc2c1 | > 4 mM (inactive) |
| O=C(O)C(CO)c1ccccc1 (configuration not stated) | > 4 mM (inactive) |
| Cn1nc(-c2ccccc2)cc1N | > 4 mM (inactive) |
| C=CCn1c(N)c(C(=O)N2CCOCC2)sc1=S | > 4 mM (inactive) |
| COc1ccccc1-c1noc(-c2ccco2)n1 | > 4 mM (inactive) |
| CCNC(=S)N1CCC(C(N)=O)CC1 | > 4 mM (inactive) |
| COc1cc2c3cc1Oc1c(OC)c(OC)cc4c1[C@@H](Cc1cccc(c1)Oc1ccc(c(O)c1)C[C@@H]3N(C)CC2)N(C)CC4 | > 4 mM (inactive) |
| COc1cc(C(=S)N2CCOCC2)ccc1O | > 4 mM (inactive) |
| c1ccc(-c2nsc(N3CCCNCC3)n2)cc1 | > 4 mM (inactive) |
| Cc1ccc(C(=O)Nc2nnc(-c3ccncc3)s2)o1 | > 4 mM (inactive) |
| CC1(C)Cn2c(nnc2-c2ccccc2)S1 | > 4 mM (inactive) |
| O=c1[nH]cc(N2CCCCC2)c(=O)[nH]1 | > 4 mM (inactive) |
| Cc1cc(=O)cc(C)n1NC(N)=S | > 4 mM (inactive) |
| CC1=C/C(=C\c2c(O)[nH]c(=O)[nH]c2=O)C(C)=N1 | > 4 mM (inactive) |
| O=CN1CCN(C(=O)c2ccc(F)cc2)CC1 | > 4 mM (inactive) |
